Our source for the IC50 values is US10556905B2, “Processes for preparing a diazabicyclooctane compound” (priority 2012, dated 2020).

Like-named read-outs stand apart in the source and are kept apart here.

One assay deals with T1, TEM-1 (Escherichia coli, UniProt P62593).
T1 construct: AmpC, TEM-1, KPC-2 or OXA-2 domain excluding signal peptide was amplified with PCR; made in house; host or cells: Escherichia coli BL21 (DE3), pET-28b(+)
The experiment in a line: β-Lactamase inhibitory activity (nitrocefin hydrolysis), TEM-1. Format: biochemical. Conditions: TEM-1 0.1 nM, 100 μM nitrocefin, pre-incubation 30° C. 10 minutes. As for the experimental part:
Using Pseudomonas aeruginosa ATCCBAA-47 genome, plasmid pBR322, Klebsiella pneumoniae ATCCBAA-1705, and P. aeruginosa MSC17696 as a template, each DNA for encoding β-lactamase, AmpC, TEM-1, KPC-2 or OXA-2 domain excluding signal peptide was amplified with PCR. Each of the PCR product was incorporated into pET-28b(+)vector (Merck), introduced into Escherichia coli BL21 (DE3) (Merck), and, under induction of 1 mM isopropyl-β-D-(−)-thiogalactopyranoside (Nacalai Tesque), cultured overnight at 20° C. to express AmpC, TEM-1, KPC-2, and OXA-2. After the bacterial cell was collected, AmpC was purified from the cell extract obtained by ultrasonic treatment, using CM Sepharose Fast Flow (GE Healthcare) and HiTrap Heparin HP (GE Healthcare) at 4° C. TEM-1 was purified with HiTrap SPHP (GE Healthcare), HiTrap Q (GE Healthcare) and Mono Q (GE Healthcare), and KPC-2 was purified with HiTrap SPHP. OXA-2 was purified with HiTrap SPHP and HiTrap Heparin HP.
For the measurement of β-lactamase inhibitory activity, 100 μM (final concentration) nitrocefin (Oxoid) was used as a substrate, and 2.5% DMSO, 10 μg/mL bovine serum derived albumin (Sigma-Aldrich) and 50 mM phosphate buffer at pH 7.0 were used as a reaction solution. […] Nitrocefin was added to each well to be mixed therein, followed by incubation at 30° C. for 20 minutes, and Multiscan Ascent (Thermo Fisher Scientific) was used to measure 492 nm wavelength, thereby measuring nitrocefin hydrolytic activity of β-Lactamase, to determine enzyme inhibitory activity. […] As the inhibitory activity strength, less than 0.1 μM, less than 1 μM, less than 3 μM, less than 10 μM, and 10 μM or more were shown with A, B, C, D, and E respectively.

For the next assay, the target named is T2, AmpC (Pseudomonas aeruginosa, UniProt P24735).
T2 construct: AmpC, TEM-1, KPC-2 or OXA-2 domain excluding signal peptide was amplified with PCR; made in house; host or cells: Escherichia coli BL21 (DE3), pET-28b(+)
T2 sequence (P24735 27-397): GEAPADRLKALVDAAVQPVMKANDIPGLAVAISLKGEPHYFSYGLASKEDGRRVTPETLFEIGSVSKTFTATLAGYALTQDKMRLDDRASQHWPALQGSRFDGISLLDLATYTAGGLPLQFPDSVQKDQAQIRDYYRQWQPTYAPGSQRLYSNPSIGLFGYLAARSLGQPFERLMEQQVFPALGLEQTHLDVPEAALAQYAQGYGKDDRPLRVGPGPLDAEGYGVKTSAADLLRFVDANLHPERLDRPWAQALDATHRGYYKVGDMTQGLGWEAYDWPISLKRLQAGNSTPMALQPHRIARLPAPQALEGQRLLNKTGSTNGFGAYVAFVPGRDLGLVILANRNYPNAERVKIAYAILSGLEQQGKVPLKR
Nature of the assay: biochemical.

The next assay has as its target T3, OXA-2 (Escherichia coli, UniProt P0A1V9).
T3 construct: AmpC, TEM-1, KPC-2 or OXA-2 domain excluding signal peptide was amplified with PCR; made in house; host or cells: Escherichia coli BL21 (DE3), pET-28b(+)
The experiment in a line: biochemical. On the set-up: species or system P. aeruginosa.

In the next assay the target is T4, KPC-2 (Klebsiella pneumoniae, UniProt Q9F663).
T4 construct: AmpC, TEM-1, KPC-2 or OXA-2 domain excluding signal peptide was amplified with PCR; made in house; host or cells: Escherichia coli BL21 (DE3), pET-28b(+)
T4 sequence (Q9F663 25-293, looked up): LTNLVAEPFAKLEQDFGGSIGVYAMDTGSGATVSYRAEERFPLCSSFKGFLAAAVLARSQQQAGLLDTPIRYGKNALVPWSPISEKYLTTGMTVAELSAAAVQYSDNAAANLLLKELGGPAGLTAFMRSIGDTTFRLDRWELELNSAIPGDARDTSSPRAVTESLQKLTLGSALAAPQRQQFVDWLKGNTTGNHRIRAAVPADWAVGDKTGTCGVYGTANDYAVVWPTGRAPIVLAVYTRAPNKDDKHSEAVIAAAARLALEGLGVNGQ
Nature of the assay: β-Lactamase inhibitory activity (nitrocefin hydrolysis), KPC-2. Format: biochemical. To be noted: KPC-2 0.5 nM, 100 μM nitrocefin, pre-incubation 30° C. 10 minutes.

The mark [1] stands for this setting: OXA-2 2 nM, 100 μM nitrocefin, pre-incubation 30° C. 10 minutes, read-out: β-Lactamase inhibitory activity OXA-2 (IC50).

T3 sequence (P0A1V9 22-275): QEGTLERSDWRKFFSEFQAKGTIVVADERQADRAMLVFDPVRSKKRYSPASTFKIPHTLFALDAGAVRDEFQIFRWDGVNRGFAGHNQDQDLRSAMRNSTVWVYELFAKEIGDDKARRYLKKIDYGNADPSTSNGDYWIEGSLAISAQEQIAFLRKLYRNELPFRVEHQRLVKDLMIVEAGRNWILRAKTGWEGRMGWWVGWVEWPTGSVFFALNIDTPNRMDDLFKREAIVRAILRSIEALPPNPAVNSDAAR
T1 sequence (P62593 24-286 limits assumed): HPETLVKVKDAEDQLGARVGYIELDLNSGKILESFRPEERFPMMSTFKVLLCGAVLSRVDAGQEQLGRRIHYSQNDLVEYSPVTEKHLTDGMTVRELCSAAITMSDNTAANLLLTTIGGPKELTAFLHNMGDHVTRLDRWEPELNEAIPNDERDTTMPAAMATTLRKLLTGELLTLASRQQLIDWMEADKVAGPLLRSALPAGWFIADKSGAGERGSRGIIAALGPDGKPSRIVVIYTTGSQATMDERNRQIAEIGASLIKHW

Take `O=C(NOCCn1ccnc1S(=O)(=O)O)[C@@H]1CC[C@@H]2CN1C(=O)N2OS(=O)(=O)O` [Example 88, Disodium 1-{2-[({[(2S,5R)-7-oxo-6-(sulfonateoxy)-1,6-diazabicyclo[3.2.1]oct-2-yl]carbonyl}amino)oxy]ethyl}-1H-Imidazol-2-sulfonate]: the IC50 (in general, the concentration that gives 50% inhibition) against TEM-1 is less than 0.1 µM; on AmpC, 0.1 to 1 µM; at OXA-2 (setting [1]) it was 0.1 to 1 µM; against KPC-2, 0.1 to 1 µM.

For `NNC(=O)[C@@H]1CC[C@@H]2CN1C(=O)N2OS(=O)(=O)O` [Example 17, (2S,5R)-7-Oxo-6-(sulfooxy)-1,6-diazabicyclo[3.2.1]octane-2-carbohydrazide], the half-inhibitory concentration (IC50) against TEM-1 is less than 0.1 µM; against AmpC, 0.1 to 1 µM; at OXA-2 (setting [1]) it was 3 to 10 µM; against KPC-2, 0.1 to 1 µM.

In the case of `CCOC(=O)NNC(=O)[C@@H]1CC[C@@H]2CN1C(=O)N2OS(=O)(=O)O` [Example 52, Sodium ethyl 2-{[(2S,5R)-7-oxo-6-(sulfooxy)-1,6-diazabicyclo[3.2.1]oct-2-yl]carbonyl}hydrazinecarboxylate], the IC50 is less than 0.1 µM at TEM-1, 0.1 to 1 µM against AmpC, 1 to 3 µM against OXA-2 and 0.1 to 1 µM on KPC-2.

In the case of `O=C(NN1CCCC1=O)[C@@H]1CC[C@@H]2CN1C(=O)N2OS(=O)(=O)O` (racemic) [Example 33, Sodium (2SR,5RS)-7-oxo-N-(2-oxopyrrolidin-1-yl)-6-(sulfooxy)-1,6-diazabicyclo[3.2.1]octane-2-carboxamide], the concentration for half-maximal inhibition (IC50) on TEM-1 was less than 0.1 µM; on AmpC, 0.1 to 1 µM; at OXA-2, 3 to 10 µM; on KPC-2 it was 0.1 to 1 µM.

With `CCNCCONC(=O)[C@@H]1CC[C@@H]2CN1C(=O)N2OS(=O)(=O)O` [Example 62, (2S,5R)—N-[2-(Ethylamino)ethoxy]-7-oxo-6-(sulfooxy)-1,6-diazabicyclo[3.2.1]octane-2-carboxamide], the IC50 is less than 0.1 µM against TEM-1, 0.1 to 1 µM at AmpC, 1 to 3 µM at OXA-2 (setting [1]) and 0.1 to 1 µM at KPC-2.

On to `O=C(NNC(=O)[C@@H]1CC[C@@H]2CN1C(=O)N2OS(=O)(=O)O)[C@H]1CCCN1` [Example 39, (2S,5R)-7-Oxo-N′-[(2R)-pyrrolidin-2-ylcarbonyl]-6-(sulfooxy)-1,6-diazabicyclo[3.2.1]octane-2-carbohydrazide], for which the IC50 is less than 0.1 µM against TEM-1, less than 0.1 µM on AmpC, 1 to 3 µM on OXA-2 (setting [1]) and 1 to 3 µM against KPC-2.

For the compound `O=C(NOCCN1CCCNCC1)[C@@H]1CC[C@@H]2CN1C(=O)N2OS(=O)(=O)O` [Example 74, (2S,5R)-7-Oxo-N-[2-(1,4-diazepan-1-yl)ethoxy]-6-(sulfooxy)-1,6-diazabicyclo[3.2.1]octane-2-carboxamide], the IC50 is less than 0.1 µM at TEM-1, less than 0.1 µM at AmpC, 0.1 to 1 µM at OXA-2 (setting [1]) and 0.1 to 1 µM on KPC-2.

With `O=C(NOCC1CCC1)[C@@H]1CC[C@@H]2CN1C(=O)N2OS(=O)(=O)O` [Example 58, Sodium (2S,5R)—N-(cyclobutylmethoxy)-7-oxo-6-(sulfooxy)-1,6-diazabicyclo[3.2.1]octane-2-carboxamide], the IC50 against TEM-1 is less than 0.1 µM; at AmpC, less than 0.1 µM; on OXA-2, 0.1 to 1 µM; against KPC-2, less than 0.1 µM.

With `CN(C)C(=O)NNC(=O)[C@@H]1CC[C@@H]2CN1C(=O)N2OS(=O)(=O)O` [Example 47, Sodium N,N-dimethyl2-{[(2S,5R)-7-oxo-6-(sulfooxy)-1,6-diazabicyclo[3.2.1]oct-2-yl]carbonyl}hydrazinecarboxamide], the IC50 on TEM-1 is less than 0.1 µM; against AmpC, 0.1 to 1 µM; against OXA-2, 3 to 10 µM; against KPC-2 it was 0.1 to 1 µM.

Turning to `O=C(NNC(=O)[C@@H]1CC[C@@H]2CN1C(=O)N2OS(=O)(=O)O)[C@H]1CCCCN1` [Example 37, (2S,5R)-7-Oxo-N′-[(2R)-piperidine-2-ylcarbonyl]-6-(sulfooxy)-1,6-diazabicyclo[3.2.1]octane-2-carbohydrazide], the IC50 against TEM-1 is less than 0.1 µM; at AmpC it was 1 to 3 µM; on OXA-2 (setting [1]), 1 to 3 µM; on KPC-2 it was 1 to 3 µM.

Turning to `O=C(NOC[C@@H]1CCCN1)[C@@H]1CC[C@@H]2CN1C(=O)N2OS(=O)(=O)O` [Example 76, (2S,5R)-7-Oxo-N-[(2S)-pyrrolidin-2-ylmethoxy]-6-(sulfooxy)-1,6-diazabicyclo[3.2.1]octane-2-carboxamide], the IC50 is less than 0.1 µM against TEM-1, 0.1 to 1 µM against AmpC, 0.1 to 1 µM on OXA-2 (setting [1]) and 0.1 to 1 µM on KPC-2.

On to `CS(=O)(=O)NNC(=O)[C@@H]1CC[C@@H]2CN1C(=O)N2OS(=O)(=O)O` [Example 54, Sodium (2S,5R)—N′-(methylsulfonyl)-7-oxo-6-(sulfooxy)-1,6-diazabicyclo[3.2.1]octane-2-carbohydrazide], for which the IC50 against TEM-1 is less than 0.1 µM; on AmpC it was less than 0.1 µM; on OXA-2 it was 0.1 to 1 µM; on KPC-2 it was 0.1 to 1 µM.

For `O=C1CC[C@@H](C(=O)NNC(=O)[C@@H]2CC[C@@H]3CN2C(=O)N3OS(=O)(=O)O)N1` [Example 41, Sodium (2S,5R)-7-oxo-N′-{[(2S)-5-oxopyrrolidin-2-yl]carbonyl}-6-(sulfooxy)-1,6-diazabicyclo[3.2.1]octane-2-carbohydrazide], the IC50 against TEM-1 was in the range of 0.1 to 1 µM; against AmpC, 0.1 to 1 µM; on OXA-2, 3 to 10 µM; against KPC-2, 1 to 3 µM.

Turning to `CC(C)NCCONC(=O)[C@@H]1CC[C@@H]2CN1C(=O)N2OS(=O)(=O)O` [Example 64, (2S,5R)-7-Oxo-N-[2-(propan-2-ylamino)ethoxy]-6-(sulfooxy)-1,6-diazabicyclo[3.2.1]octane-2-carboxamide], the IC50 at TEM-1 is less than 0.1 µM; against AmpC it was 0.1 to 1 µM; at OXA-2 (setting [1]), 1 to 3 µM; against KPC-2 it was 0.1 to 1 µM.

In the case of `O=C1CC[C@H](C(=O)NNC(=O)[C@@H]2CC[C@@H]3CN2C(=O)N3OS(=O)(=O)O)N1` [Example 42, Sodium (2S,5R)-7-oxo-N′-{[(2R)-5-oxopyrrolidin-2-yl]carbonyl}-6-(sulfooxy)-1,6-diazabicyclo[3.2.1]octane-2-carbohydrazide], the IC50 fell in the range of 0.1 to 1 µM against TEM-1, 0.1 to 1 µM on AmpC, 1 to 3 µM at OXA-2 and 0.1 to 1 µM on KPC-2.

For `C[C@@H](CN)ONC(=O)[C@@H]1CC[C@@H]2CN1C(=O)N2OS(=O)(=O)O` [Example 68, (2S,5R)—N-{[(2S)-1-Aminopropan-2-yl]oxy}-7-oxo-6-(sulfooxy)-1,6-diazabicyclo[3.2.1]octane-2-carboxamide], the IC50 against TEM-1 was less than 0.1 µM; against AmpC it was less than 0.1 µM; on OXA-2 (setting [1]), 1 to 3 µM; against KPC-2 it was 0.1 to 1 µM.

Turning to `CN(NC(=O)[C@@H]1CC[C@@H]2CN1C(=O)N2OS(=O)(=O)O)C(=O)OC(C)(C)C` (racemic) [Example 18, Sodium tert-butyl 1-methyl-2-{[(2SR,5RS)-7-oxo-6-(sulfooxy)-1,6-diazabicyclo[3.2.1]oct-2-yl]carbonyl}hydrazinecarboxylate], the IC50 was less than 0.1 µM against TEM-1, 0.1 to 1 µM at AmpC, 1 to 3 µM against OXA-2 and 0.1 to 1 µM on KPC-2.

As to `O=C(NOCC1CNC1)[C@@H]1CC[C@@H]2CN1C(=O)N2OS(=O)(=O)O` [Example 82, (2S,5R)—N-(Azetidin-3-ylmethoxy)-7-oxo-6-(sulfooxy)-1,6-diazabicyclo[3.2.1]octane-2-carboxamide], the IC50 against TEM-1 is less than 0.1 µM; against AmpC, less than 0.1 µM; at OXA-2 (setting [1]), 0.1 to 1 µM; on KPC-2, 0.1 to 1 µM.

For the compound `O=C(NOCCN1CCOCC1)[C@@H]1CC[C@@H]2CN1C(=O)N2OS(=O)(=O)O` [Example 72, Sodium (2S,5R)—N-[2-(morpholin-4-yl)ethoxy]-7-oxo-6-(sulfooxy)-1,6-diazabicyclo[3.2.1]octane-2-carboxamide], the IC50 was less than 0.1 µM on TEM-1, less than 0.1 µM at AmpC, 0.1 to 1 µM at OXA-2 and 0.1 to 1 µM against KPC-2.

As to `O=C(NOCCO)[C@@H]1CC[C@@H]2CN1C(=O)N2OS(=O)(=O)O` [Example 95, Sodium (2S,5R)—N-(2-hydroxyethoxy)-7-oxo-6-(sulfooxy)-1,6-diazabicyclo[3.2.1]octane-2-carboxamide], the IC50 was less than 0.1 µM at TEM-1, less than 0.1 µM on AmpC, 1 to 3 µM against OXA-2 and less than 0.1 µM on KPC-2.
